Source: US20240025922A1, “TETRAHYDROPYRIDO[3,4-d]PYRIMIDINES AS HPK1 INHIBITORS” (Merck Patent GmbH, priority 2022, published 2024)

Assays:
[1] = molecular target: full-length human HPK1 (MAP4K1) (Homo sapiens (Human), UniProt Q92918); assay: HPK1 Kinase Assay (Biochemical Assay), ADP-Glo; conditions: GST-HPK1 3.2 nM, 10 μM ATP, MBP substrate, read-out: HPK1 enzymatic IC50
Excerpt: HPK1 Kinase Assay (Biochemical Assay).
A recombinant fusion protein consisting of full-length human HPK1 (MAP4K1) with an N-terminal Glutatione S-transferase (GST) tag was produced in insect cells Sf21 using the baculovirus expression system. GST-HPK1 protein was purified from cell lysates by glutathione Sepharose affinity chromatography. The assay is run in three continuous steps: 1) the HPK1 enzymatic kinase reaction, 2) an ATP depletion, and 3) the ADP detection, the steps 2 and 3 are performed with ADP-Glo™ Kinase Assay kit from Promega (V9101). Test compounds were prepared by 10-point serial dilution in dimethyl sulfoxide (DMSO) and 100 nL of each dilution was spotted onto a 384-well Optiplate (Perkin Elmer and Cat #6007299) by Labcyte Echo. 5 μL kinase reaction buffer (0.02% Brij-35, 2 mM DTT, 50 mM HEPES pH 7.5, MgCl2 10 mM, BSA 0.01% and O-glycerophosphate 12.5 mM) containing HPK1 (3.2 nM) enzyme was transferred to each well and incubated for 15 minutes at room temperature at 60% humidity. The enzymatic reaction was started by adding 5 μl of Start-Mix (10 μM ATP and 3.235 μM MBP). After 120 minutes, the reaction was stopped by adding 5 μL of ADP-Glo reagent (Promega, V9101) and incubating for 40 min. in the dark at 23° C. To determine the level of ADP, 10 μl ADP-Glo Detection solution was added and incubated for 1 hour at 23° C. in the dark. The plate was transferred to a Perkin Elmer EnVision (2104 Multilabel Reader) for luminescence detection and percent inhibition activity and IC50 value were determined using Genedata Screener.

[2] = molecular target: HPK1 (SLP76 phosphorylation at Ser376 in Jurkat and EL-4 cells) (Homo sapiens, UniProt Q92918); format: cell-based; conditions: αCD3/αCD28 Dynabeads stimulated cells, pSLP76 (Ser376) detection; read-out: HPK1 pSLP76 IC50
HPK1 (SLP76 phosphorylation at Ser376 in Jurkat and EL-4 cells), sequence (Q92918 whole entry, looked up): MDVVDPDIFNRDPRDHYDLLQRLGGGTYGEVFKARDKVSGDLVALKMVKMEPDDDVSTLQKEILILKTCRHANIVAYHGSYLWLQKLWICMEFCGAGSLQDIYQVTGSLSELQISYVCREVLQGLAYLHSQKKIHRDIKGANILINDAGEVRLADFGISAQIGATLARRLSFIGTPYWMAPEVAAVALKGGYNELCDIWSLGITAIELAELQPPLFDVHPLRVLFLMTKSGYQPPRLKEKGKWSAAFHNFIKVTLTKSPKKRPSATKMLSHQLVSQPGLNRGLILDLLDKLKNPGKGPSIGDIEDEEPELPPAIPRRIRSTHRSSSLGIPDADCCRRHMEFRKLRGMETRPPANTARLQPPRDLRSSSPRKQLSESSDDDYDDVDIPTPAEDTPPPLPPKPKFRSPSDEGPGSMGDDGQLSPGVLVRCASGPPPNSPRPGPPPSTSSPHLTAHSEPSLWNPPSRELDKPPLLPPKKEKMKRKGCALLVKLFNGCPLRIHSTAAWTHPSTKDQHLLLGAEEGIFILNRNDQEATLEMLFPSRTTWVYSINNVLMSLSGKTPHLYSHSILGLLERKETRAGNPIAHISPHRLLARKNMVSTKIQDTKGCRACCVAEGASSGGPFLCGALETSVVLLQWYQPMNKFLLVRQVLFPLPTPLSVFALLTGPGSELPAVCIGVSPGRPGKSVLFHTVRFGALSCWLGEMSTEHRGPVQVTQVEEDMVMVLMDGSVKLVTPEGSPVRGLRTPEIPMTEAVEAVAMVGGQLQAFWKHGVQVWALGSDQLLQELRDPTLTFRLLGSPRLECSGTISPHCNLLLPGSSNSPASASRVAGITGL
Description: Cellular Assay—Phospho-SLP-76 (Ser376).
Inhibition of HPK1 enzymatic activity in cells was determined by detection of SLP76 phosphorylation at Ser376 residue in lysate from Jurkat (human) and EL-4 (mouse) cells. Jurkat and EL-4 cells express both HPK1 and SLP76 naturally. All cells were cultured in RPMI 1640 media containing 10% heat inactivated fetal bovine serum (FBS) and 1×Penicillin-Streptomycin. In either Jurkat or El-4 assay, cells were pre-incubated with test compounds prior to T cell stimulation by respective αCD3/αCD28 Dynabeads™. For detection, plates were read on the Envision and percent inhibition and IC50 were determined by Smart fit in Genedata Analyzer.
For Jurkat cells: 35 μL cell suspension were dispensed at a density of 30,000 cells/well in 384-well plates containing HBSS (Gibco, 14025076)+0.1% BSA). 10-point logarithmic serial dilution of test compounds in DMSO were prepared by a Hamilton automated liquid handling robot and 35 nL was transferred into each well by an Echo liquid handler. After 60 min. pre-incubation, the cells were stimulated by adding 5 μL human T activator αCD3/αCD28 Dynabeads™ (Gibco, 11132D) at 1.2×107 beads/mL for 15 minutes at 37° C. Detection of Ser376 phosphorylation status was accomplished by first adding 10 μL of 5×AlphaLISA lysis buffer (Perkin Elmer, ALSU-PSLP-A500) to each well of the cell plate using a Multidrop Combi (5840300), followed by 20 minutes shaking. 10 μL cell lysate from each treatment were then transferred to a white 384-well plate (Corning 3572) and incubated with AlphaLISA acceptor beads for one hour (AlphaLISA SureFire Ultra p-SLP76(Ser376), Perkin Elmer, ALSU-PSLP-A500), and donor beads for additional 2 hours at room temperature in the dark.
For EL-4.IL2 assay, 50 μL cell suspension at 2×10^6 cells/mL in HBSS were first dispensed into 384-well plates and then 50 nL serial dilutions of test compounds were spotted to each well by an Echo liquid handler. After 60 min. incubation at 37° C., cells were stimulated by adding 5 μL mouse T cell activator αCD3/αCD28 Dynabeads™ (ThermFisher Scientific, 11452D) for 30 minutes at 37° C. After a brief spin and subsequent supernatant discarded, 12.5 μL of Cisbio lysis buffer were added to each well and plates were shaken for 30 min at 450 RPM. For detection, 4 μL prepared HTRF antibody mixture (Cisbio, 63ADK000U) in detection buffer were mixed with 16 μl of cell lysate and plates were incubated at room temperature for 19 hours prior to EnVision reading.

full-length human HPK1 (MAP4K1), sequence (Q92918 whole entry): as the sequence (Q92918 whole entry, looked up) above

IC50 [1] | IC50 [2] | SMILES
< 100 nM | < 500 nM | Cc1c(N2CCc3cnc(Nc4ccc(NC(=O)CN5CCOCC5)cc4)nc3C2)cnc2c1NCCO2 [Example 12, N-{4-[(7-{8-methyl-1H,2H,3H-pyrido[2,3-b][1,4]oxazin-7-yl}-5H,6H,7H,8H-pyrido[3,4-d]pyrimidin-2-yl)amino]phenyl}-2-(morpholin-4-yl)acetamide]
< 100 nM | < 500 nM | Cc1c(N2CCc3cnc(Nc4ccc5c(c4)CNC5(C)C)nc3C2)cnc2c1NCCO2 [Example 13, 1,1-dimethyl-N-(7-{8-methyl-1H,2H,3H-pyrido[2,3-b][1,4]oxazin-7-yl}-5H,6H,7H,8H-pyrido[3,4-d]pyrimidin-2-yl)-2,3-dihydro-1H-isoindol-5-amine]
< 100 nM | < 500 nM | Cc1cc(Nc2cc3c(cn2)CCN(c2cnc4c(c2C)NCCO4)C3)ccc1NCCN(C)C [Example 14, N1-[2-(dimethylamino)ethyl]-2-methyl-N4-(6-{8-methyl-1H,2H,3H-pyrido[2,3-b][1,4]oxazin-7-yl}-5,6,7,8-tetrahydro-2,6-naphthyridin-3-yl)benzene-1,4-diamine]
< 100 nM | 500 to 1000 nM | Cc1cc(Nc2cc3c(cn2)CCN(c2cnc4c(c2C)NCCO4)C3)ccc1NCCN1CCOCC1 [Example 15, 2-methyl-N4-(6-{8-methyl-1H,2H,3H-pyrido[2,3-b][1,4]oxazin-7-yl}-5,6,7,8-tetrahydro-2,6-naphthyridin-3-yl)-N1-[2-(morpholin-4-yl)ethyl]benzene-1,4-diamine]
< 100 nM | 500 to 1000 nM | Cc1cc(Nc2ncc3c(n2)CN(c2cnc4c(c2C)NCCO4)CC3)ccc1N(C)CCN1CCOCC1 [Example 17, N1,2-dimethyl-N4-(7-{8-methyl-1H,2H,3H-pyrido[2,3-b][1,4]oxazin-7-yl}-5H,6H,7H,8H-pyrido[3,4-d]pyrimidin-2-yl)-N1-[2-(morpholin-4-yl)ethyl]benzene-1,4-diamine; formic acid]
< 100 nM | 500 to 1000 nM | Cc1c(N2CCc3cnc(Nc4ccc(C5(S(C)(=O)=O)CC5)nc4)nc3C2)cnc2c1NCCO2 [Example 18, 6-(1-methanesulfonylcyclopropyl)-N-(7-{8-methyl-1H,2H,3H-pyrido[2,3-b][1,4]oxazin-7-yl}-5H,6H,7H,8H-pyrido[3,4-d]pyrimidin-2-yl)pyridin-3-amine]
< 100 nM | < 500 nM | Cc1c(N2CCc3cnc(Nc4cnc(CS(C)(=O)=O)c(F)c4)nc3C2)cnc2c1NCCO2 [Example 19, 5-fluoro-6-(methanesulfonylmethyl)-N-(7-{8-methyl-1H,2H,3H-pyrido[2,3-b][1,4]oxazin-7-yl}-5H,6H,7H,8H-pyrido[3,4-d]pyrimidin-2-yl)pyridin-3-amine]
< 100 nM | > 1000 nM | Cc1c(N2CCc3cnc(Nc4ccc(C(C)(C)S(C)(=O)=O)nc4)nc3C2)cnc2c1NCCO2 [Example 20, 6-(2-methanesulfonylpropan-2-yl)-N-(7-{8-methyl-1H,2H,3H-pyrido[2,3-b][1,4]oxazin-7-yl}-5H,6H,7H,8H-pyrido[3,4-d]pyrimidin-2-yl)pyridin-3-amine]
< 100 nM | 500 to 1000 nM | Cc1cc(Nc2ncc3c(n2)CN(c2cnc4c(c2C)NCCO4)CC3)cnc1CS(C)(=O)=O [Example 21, 6-(methanesulfonylmethyl)-5-methyl-N-(7-{8-methyl-1H,2H,3H-pyrido[2,3-b][1,4]oxazin-7-yl}-5H,6H,7H,8H-pyrido[3,4-d]pyrimidin-2-yl)pyridin-3-amine]
< 100 nM | 500 to 1000 nM | Cc1cc(Nc2ncc3c(n2)CN(c2cnc4c(c2C)NCCO4)CC3)ccc1NCCN1CCOCC1 [Example 23, 2-methyl-N4-(7-{8-methyl-1H,2H,3H-pyrido[2,3-b][1,4]oxazin-7-yl}-5H,6H,7H,8H-pyrido[3,4-d]pyrimidin-2-yl)-N1-[2-(morpholin-4-yl)ethyl]benzene-1,4-diamine]
< 100 nM | 500 to 1000 nM | Cc1c(N2CCc3cnc(Nc4ccc(S(C)(=O)=O)cc4)nc3C2)cnc2c1NCCO2 [Example 24, N-(4-methanesulfonylphenyl)-7-{8-methyl-1H,2H,3H-pyrido[2,3-b][1,4]oxazin-7-yl}-5H,6H,7H,8H-pyrido[3,4-d]pyrimidin-2-amine]
< 100 nM | < 500 nM | Cc1c(N2CCc3cnc(Nc4ccc(OCS(C)(=O)=O)cc4)nc3C2)cnc2c1NCCO2 [Example 25, N-[4-(methanesulfonylmethoxy)phenyl]-7-{8-methyl-1H,2H,3H-pyrido[2,3-b][1,4]oxazin-7-yl}-5H,6H,7H,8H-pyrido[3,4-d]pyrimidin-2-amine]
< 100 nM | 500 to 1000 nM | Cc1c(N2CCc3cnc(Nc4ccc(NCCN(C)C)nc4)cc3C2)cnc2c1NCCO2 [Example 26, N2-[2-(dimethylamino)ethyl]-N5-(6-{8-methyl-1H,2H,3H-pyrido[2,3-b][1,4]oxazin-7-yl}-5,6,7,8-tetrahydro-2,6-naphthyridin-3-yl)pyridine-2,5-diamine]
< 100 nM | 500 to 1000 nM | Cc1cc(Nc2cc3c(cn2)CCN(c2cnc4c(c2C)NCCO4)C3)ccc1C(=O)NCCN1CCOCC1 [Example 27, 2-methyl-4-[(6-{8-methyl-1H,2H,3H-pyrido[2,3-b][1,4]oxazin-7-yl}-5,6,7,8-tetrahydro-2,6-naphthyridin-3-yl)amino]-N-[2-(morpholin-4-yl)ethyl]benzamide]
< 100 nM | 500 to 1000 nM | Cc1cc(Nc2ncc3c(n2)CN(c2cnc4c(c2C)NCCO4)CC3)cnc1NCCN(C)C [Example 28, N2-[2-(dimethylamino)ethyl]-3-methyl-N5-(7-{8-methyl-1H,2H,3H-pyrido[2,3-b][1,4]oxazin-7-yl}-5H,6H,7H,8H-pyrido[3,4-d]pyrimidin-2-yl)pyridine-2,5-diamine]
< 100 nM | < 500 nM | Cc1c(N2CCc3cnc(Nc4ccc(NC(=O)CN5CCOCC5)c(C(F)(F)F)c4)nc3C2)cnc2c1NCCO2 [Example 29, N-{4-[(7-{8-methyl-1H,2H,3H-pyrido[2,3-b][1,4]oxazin-7-yl}-5H,6H,7H,8H-pyrido[3,4-d]pyrimidin-2-yl)amino]-2-(trifluoromethyl)phenyl}-2-(morpholin-4-yl)acetamide]
< 100 nM | < 500 nM | Cc1c(N2CCc3cnc(Nc4ccc5c(c4)CN(CC(C)(C)O)C5)nc3C2)cnc2c1NCCO2 [Example 30, 2-methyl-1-{5-[(7-{8-methyl-1H,2H,3H-pyrido[2,3-b][1,4]oxazin-7-yl}-5H,6H,7H,8H-pyrido[3,4-d]pyrimidin-2-yl)amino]-2,3-dihydro-1H-isoindol-2-yl}propan-2-ol]
< 100 nM | > 1000 nM | Cc1c(N2CCc3cnc(Nc4ccc(NC(=O)CN(C)C)nc4)cc3C2)cnc2c1NCCO2 [Example 31, 2-(dimethylamino)-N-{5-[(6-{8-methyl-1H,2H,3H-pyrido[2,3-b][1,4]oxazin-7-yl}-5,6,7,8-tetrahydro-2,6-naphthyridin-3-yl)amino]pyridin-2-yl}acetamide]
